In patent publication US5624923A, “Tricyclic diazepine vasopressin antagonists and oxytocin antagonists” (priority 1995, dated 1997):

Assays:
[1] = biological target: T1, V1 Receptor Subtype in Human Platelet (Homo sapiens, UniProt P37288); test: Binding to Vasopressin V1 receptor subtype in Human Platelet Membranes; conditions: human platelet membranes;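 note: reported value is IC50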
T1 construct: tissue Hudson Valley Blood Services, Westchester Medical Center, Valhalla, N.Y; host or cells: human platelets (frozen platelet rich plasma)
T1 sequence (P37288 whole entry): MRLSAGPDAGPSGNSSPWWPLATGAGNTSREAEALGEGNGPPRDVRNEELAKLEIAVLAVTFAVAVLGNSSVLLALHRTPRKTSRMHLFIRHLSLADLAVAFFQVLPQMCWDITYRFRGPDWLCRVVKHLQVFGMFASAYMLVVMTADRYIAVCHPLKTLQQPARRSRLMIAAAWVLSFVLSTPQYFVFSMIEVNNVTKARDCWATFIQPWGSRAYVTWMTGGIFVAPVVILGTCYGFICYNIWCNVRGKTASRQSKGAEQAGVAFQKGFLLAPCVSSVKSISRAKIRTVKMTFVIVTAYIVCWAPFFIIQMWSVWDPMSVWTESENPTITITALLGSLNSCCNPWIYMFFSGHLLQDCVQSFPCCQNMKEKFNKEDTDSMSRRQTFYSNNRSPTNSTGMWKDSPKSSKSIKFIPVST

Vasopressin V1 = Vasopressin V1 Antagonist Activity in Conscious Rats (vasopressin vasopressor response); type: in vivo, rat
Summary of the method: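 Conscious rats are restrained supine, and under local 2% procaine a PE 10/20 cannula is passed through the ventral caudal tail artery into the lower abdominal aorta. The caudal vein is cannulated for intravenous dosing. Blood pressure is recorded with a Statham P23Db transducer, and vasopressin injections are repeated after compound dosing. Percent antagonism is calculated against the pre-drug vasopressor response taken as 100%.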

Rat Hepatic V1 Receptors = biological target: T2, Rat Hepatic V1 Receptors (Rattus norvegicus, UniProt P30560); test: Binding Assay to Rat Hepatic V1 Receptors; conditions: for IC50: rat liver membranes, read-out: V1 IC50; for inhibition at 10 µM: 2 h, rat
T2 construct: Rat liver plasma membranes expressing the vasopressin V1 receptor subtypes; from tissue; host or cells: rat liver plasma membranes
T2 sequence (P30560 whole entry): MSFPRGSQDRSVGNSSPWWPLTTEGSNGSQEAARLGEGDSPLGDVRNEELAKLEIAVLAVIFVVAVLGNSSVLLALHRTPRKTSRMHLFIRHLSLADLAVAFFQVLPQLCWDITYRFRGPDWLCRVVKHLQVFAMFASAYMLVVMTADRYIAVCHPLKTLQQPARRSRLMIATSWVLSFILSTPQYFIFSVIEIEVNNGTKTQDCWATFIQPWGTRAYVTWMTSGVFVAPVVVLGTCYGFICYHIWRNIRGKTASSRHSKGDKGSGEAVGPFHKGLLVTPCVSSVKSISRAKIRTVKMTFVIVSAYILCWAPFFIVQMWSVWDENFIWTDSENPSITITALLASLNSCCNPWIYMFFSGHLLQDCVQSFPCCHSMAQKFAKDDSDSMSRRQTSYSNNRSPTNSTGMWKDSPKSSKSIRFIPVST

Compound | IC50 [1] [nM] | Max. % Inhibition (Vasopressin V1; 30 mg/kg i.v.) [%] | Time (of max. % inhibition) (Vasopressin V1; 30 mg/kg i.v.) [min] | IC50 (Rat Hepatic V1 Receptors) [nM] | Max. % Inhibition (Vasopressin V1; 10 mg/kg i.v.) [%] | Time (of max. % inhibition) (Vasopressin V1; 10 mg/kg i.v.) [min] | Max. % Inhibition (Vasopressin V1; 30 mg/kg p.o.) [%] | Time (of max. % inhibition) (Vasopressin V1; 30 mg/kg p.o.) [min] | inhibition at 10 µM (Rat Hepatic V1 Receptors) [%]
O=C(Nc1ccc(C(=O)N2Cc3ccnn3Cc3ccccc32)cc1)c1ccc(Cl)cc1Cl [Example 217, N-[4-(4H-Pyrazolo[5,1-c][1,4]benzo-diazepin-5(10H)-ylcarbonyl)phenyl]-2,4-dichlorobenzamide] | 190 | 57 | 90 | 68 | – | – | – | – | –
O=C(Nc1ccc(C(=O)N2Cc3cccn3Cc3sccc32)cc1)c1ccc(Cl)cc1Cl [Example 274, N-(4-(5H-pyrrolo[1,2-a]thieno-[3,2-e][1,4]diazepin-4(10H)-ylcarbonyl)phenyl]-2,4-dichloro-benzamide] | 240 | – | – | – | 59 | 300 | – | – | –
COc1cc(C(=O)N2Cc3cccn3Cc3ccccc32)ccc1NC(=O)c1ccccc1C [Example 477, N-[4-(5H-pyrrolo[2,1-c][1,4]benzodiazepin-10(11H)-ylcarbonyl)-2-methoxy-phenyl]-2-methylbenzamide] | 3 | – | – | – | 88 | 180 | 82 | 30 | –
COc1cc(C(=O)N2Cc3cccn3Cc3ccccc32)ccc1NC(=O)c1ccc(Cl)cc1Cl [Example 478, N-[4-(5H-pyrrolo[2,1-c][1,4]benzodiazepin-10(11H)-ylcarbonyl)-2-methoxy-phenyl]-2,4-dichlorobenzamide] | 32 | – | – | – | 76 | 120 | – | – | –
COc1cc(C(=O)N2Cc3cccn3Cc3ccccc32)ccc1NC(=O)c1cccc(F)c1C [Example 479, N-[4-(5H-pyrrolo[2,1-c][1,4]benzodiazepin-10(11H)-ylcarbonyl)-2-methoxy-phenyl]-3-fluoro-2-methylbenzamide] | 23 | – | – | – | 83 | 60 | 69 | 90 | –
O=C(Nc1ccc(C(=O)N2Cc3cccn3Cc3ccccc32)cc1)c1cc([N+](=O)[O-])ccc1Cl [Example 480, N-[4-(5H-pyrrolo[2,1-c][1,4]benzodiazepin-10(11H)-ylcarbonyl)phenyl]-2-chloro-5-nitrobenzamide] | 540 | – | – | – | 29 | 300 | – | – | –
Cc1cccc(C(=O)Nc2ccc(C(=O)N3Cc4cccn4Cc4ccccc43)c(Cl)c2)c1C [Example 525, N-[4-(5H-pyrrolo[2,1-c][1,4]benzodiazepin-10(11H)-ylcarbonyl]-3-chlorophenyl]-2,3-dimethylbenzamide] | 430 | 70 | 60 | – | – | – | – | – | –
O=C(Nc1ccc(C(=O)N2Cc3cccn3Cc3ccccc32)c(Cl)c1)c1ccc(F)cc1Cl [Example 527, N-[4-(5H-pyrrolo[2,1-c][1,4]benzodiazepin-10(11H)-ylcarbonyl]-3-chlorophenyl]-4-fluoro-2-chlorobenzamide] | 26 | 85 | 180 | – | – | – | – | – | –
O=C(Nc1ccc(C(=O)N2Cc3cccn3Cc3ccccc32)c(Cl)c1)c1ccccc1C(F)(F)F [Example 528, N-[4-(5H-pyrrolo[2,1-c][1,4]benzodiazepin-10(11H)-ylcarbonyl]-3-chlorophenyl]-2-(trifluoromethyl)benzamide] | 200 | 66 | 300 | – | – | – | – | – | –
Cc1ccccc1C(=O)Nc1ccc(C(=O)N2Cc3cccn3Cc3ccccc32)cc1Cl [Example 530, N-[4-(5H-Pyrrolo[2,1-c][1,4]benzodiazepin-10(11H)-ylcarbonyl)-2-chlorophenyl]-2-methylbenzamide] | 3 | 89 | 120 | – | – | – | – | – | –
NC(=O)CNC(C(=O)Nc1ccc(C(=O)N2Cc3cccn3Cc3ccccc32)cc1)c1ccccc1 (centres unmarked) [Example 585] | – | – | – | 280 | 56 | 30 | – | – | –
CC(=O)OC(C(=O)Nc1ccc(C(=O)N2Cc3cccn3Cc3ccccc32)cc1)c1ccccc1 (stereo not drawn) [Example 587, α-(Acetyloxy)-N-[4-(5H-pyrrolo[2,1-c][1,4]benzodiazepin-10(11H)-ylcarbonyl)phenyl]benzeneacetamide] | – | – | – | 67 | 75 | 60 | – | – | –
O=C(CN1CCOCC1)Nc1ccc(C(=O)N2Cc3cccn3Cc3ccccc32)cc1 [Example 590, N-[4-(5H-pyrrolo[2,1-c][1,4]benzodiazepin-10(11H)-ylcarbonyl)phenyl]-4-morpholineacetamide] | – | 89 | 120 | – | – | – | – | – | 89
COC(=O)c1ccc2n1Cc1ccccc1N(C(=O)c1ccc(NC(=O)c3ccc(Cl)cc3Cl)cc1)C2 [Example 593] | – | 67 | 60 | 210 | – | – | – | – | –
O=C(Nc1ccc(C(=O)N2Cc3ccc(C(=O)C(F)(F)F)n3Cc3ccccc32)cc1)c1ccccc1C(F)(F)F [Example 594] | – | 36 | 180 | – | – | – | – | – | 78
Cc1ccccc1C(=O)Nc1ccc(C(=O)N2Cc3ccc(C(=O)C(F)(F)F)n3Cc3ccccc32)c(Cl)c1 [Example 595, N-[4-[[3-(Trifluoroacetyl)-5H-pyrrolo[2,1-c][1,4]benzodiazepin-10(11H)-yl]carbonyl]-3-chlorophenyl]-2-methylbenzamide] | – | 44 | 90 | – | – | – | – | – | 57
O=C(Nc1ccc(C(=O)N2Cc3cccn3Cc3ccccc32)cc1)c1cc(Cl)cc(Cl)c1Cl [Example 599, N-[4-(5H-Pyrrolo[2,1-c][1,4]benzodiazepin-10(11H)-ylcarbonyl)phenyl]-2,3,5-trichlorobenzamide] | – | 86 | 90 | 46 | – | – | – | – | –
